SMILES strings stand for the structures. Values joined by “and” are separate entries in the source; they are usually repeats but may differ in a detail not shown here. Identical values can stand only once. Toxic doses and inconclusive results are not listed.

Data on 21 molecules can be found in PubChem BioAssay AID328 (DTP/NCI, 2004).

This assay concerns BDF1 mice, P388 leukemia ip, median survival T/C. In words: NCI In Vivo Anticancer Drug Screen. Data for tumor model P388 Leukemia (intraperitoneal) in B6D2F1 (BDF1) mice. Conditions: endpoint: median survival time, higher = longer survival. The procedure, abridged: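 Compound-treated tumour-bearing mice were compared with vehicle-treated controls. Survival was recorded, and the value is the treated-group measurement divided by the control-group measurement (T/C).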

[1] abbreviates: dose: 100.0 mg/kg/injection, schedule: Q01DX009 (ip), vehicle: saline with Tween-80.
Where [2] appears, read: dose: 100.0 mg/kg/injection, schedule: Q04DX003 (ip), vehicle: saline with Tween-80.
[3] abbreviates: dose: 200.0 mg/kg/injection, schedule: Q01DX009 (ip), vehicle: saline with Tween-80.
Setting [4] is: dose: 200.0 mg/kg/injection, schedule: Q04DX003 (ip), vehicle: saline with Tween-80.
Where [5] appears, read: dose: 25.0 mg/kg/injection, schedule: Q01DX009 (ip), vehicle: saline with Tween-80.
Where [6] appears, read: dose: 50.0 mg/kg/injection, schedule: Q01DX009 (ip), vehicle: saline with Tween-80.
Setting [7] is: dose: 100.0 mg/kg/injection, schedule: Q01DX001 (ip), vehicle: saline with Tween-80.
[8] abbreviates: dose: 400.0 mg/kg/injection, schedule: Q01DX001 (ip), vehicle: saline with Tween-80.
Where [9] appears, read: dose: 100.0 mg/kg/injection, schedule: Q04DX003 (ip), vehicle: Klucel (hydroxypropylcellulose) (HPC).
[10] abbreviates: dose: 200.0 mg/kg/injection, schedule: Q04DX003 (ip), vehicle: Klucel (hydroxypropylcellulose) (HPC).
[11] abbreviates: dose: 400.0 mg/kg/injection, schedule: Q04DX003 (ip), vehicle: Klucel (hydroxypropylcellulose) (HPC).
Where [12] appears, read: dose: 12.5 mg/kg/injection, schedule: Q01DX009 (ip), vehicle: saline.
[13] abbreviates: dose: 25.0 mg/kg/injection, schedule: Q01DX009 (ip), vehicle: saline.
[14] abbreviates: dose: 50.0 mg/kg/injection, schedule: Q01DX009 (ip), vehicle: saline.
Where [15] appears, read: dose: 100.0 mg/kg/injection, schedule: Q01DX009 (ip), vehicle: saline.
Where [16] appears, read: dose: 200.0 mg/kg/injection, schedule: Q01DX009 (ip), vehicle: saline.
[17] abbreviates: dose: 1.56 mg/kg/injection, schedule: Q01DX009 (ip), vehicle: saline.
The mark [18] stands for this setting: dose: 3.13 mg/kg/injection, schedule: Q01DX009 (ip), vehicle: saline.
Setting [19] is: dose: 6.25 mg/kg/injection, schedule: Q01DX009 (ip), vehicle: saline.
Where [20] appears, read: dose: 100.0 mg/kg/injection, schedule: Q01DX010 (ip), vehicle: saline.

In the case of `O=C1Cc2ccccc21`, the T/C under setting [1] was 96 % of control; the T/C under setting [2] is 100 % of control and 110 % of control; the T/C (dose: 177.0 mg/kg/injection, schedule: Q04DX003 (ip), vehicle: saline with Tween-80) was 100 % of control; the T/C under setting [3] was 107 % of control; the T/C under setting [4] was 110 % of control; the T/C (dose: 266.0 mg/kg/injection, schedule: Q04DX003 (ip), vehicle: saline with Tween-80) was 104 % of control and 109 % of control. Also, where the note is “dose: 600.0 mg/kg/injection, schedule: Q04DX003 (ip), vehicle: saline with Tween-80”, the T/C is 104 % of control and 122 % of control.
On to `CCCCCCCCCCCCCCC(F)C(=O)OCC1OC(CO)(OC2OC(CO)C(O)C(O)C2O)C(O)C1O` (stereo not given), for which the T/C was 116 % of control under setting [5]; 108 % of control under setting [6]; 108 % of control (dose: 50.0 mg/kg/injection, schedule: Q04DX003 (ip), vehicle: saline with Tween-80); 91 % of control under setting [2].
Regarding `CSc1cc(C(N)=O)c2c(N)nc(SC)nc2n1`, the T/C is 111 % of control (dose: 25.0 mg/kg/injection, schedule: Q01DX001 (ip), vehicle: saline with Tween-80); 109 % of control (dose: 50.0 mg/kg/injection, schedule: Q01DX001 (ip), vehicle: saline with Tween-80); 100 % of control and 111 % of control under setting [7]; 100 % of control under setting [8].
With `CN(C)CCNC1=CC(=O)c2ccccc2C1=O`, the T/C is, setting by setting: (dose: 12.5 mg/kg/injection, schedule: Q01DX009 (ip), vehicle: water) 91 % of control; (dose: 12.5 mg/kg/injection, schedule: Q04DX003 (ip), vehicle: water) 107 % of control; (dose: 25.0 mg/kg/injection, schedule: Q01DX009 (ip), vehicle: water) 102 % of control; (dose: 25.0 mg/kg/injection, schedule: Q04DX003 (ip), vehicle: water) 100 % of control; (dose: 50.0 mg/kg/injection, schedule: Q01DX009 (ip), vehicle: water) 100 % of control; (dose: 50.0 mg/kg/injection, schedule: Q04DX003 (ip), vehicle: water) 100 % of control. Besides, the T/C by setting is: (dose: 100.0 mg/kg/injection, schedule: Q01DX009 (ip), vehicle: water) 98 % of control; (dose: 100.0 mg/kg/injection, schedule: Q04DX003 (ip), vehicle: water) 98 % of control; (dose: 200.0 mg/kg/injection, schedule: Q01DX009 (ip), vehicle: water) 96 % of control and 105 % of control.
With `CN(C)c1ccc(C(/C=N\O)(c2ccc(N(C)C)cc2)c2ccc(N(C)C)cc2)cc1`, the T/C is, setting by setting: under setting [9], 104 % of control; under setting [10], 100 % of control; under setting [11], 109 % of control.
With `COc1ccc(C(=O)CC(c2ccc(OC)c(OC)c2)c2c(O)c3ccccc3oc2=O)cc1OC` (stereo not given), the T/C is, setting by setting: under setting [12], 101 % of control; under setting [13], 111 % of control; under setting [14], 101 % of control; under setting [15], 109 % of control; under setting [16], 93 % of control.
Regarding `COc1ccc2[nH]c(=S)[nH]c(=S)c2c1`, the T/C under setting [2] is 92 % of control; the T/C under setting [4] was 91 % of control; the T/C (dose: 400.0 mg/kg/injection, schedule: Q04DX003 (ip), vehicle: saline with Tween-80) was 100 % of control.
Regarding `O=C(N=C1C=CC(=NC(=O)OCc2ccccc2)C=C1)OCc1ccccc1`, the T/C under setting [9] was 95 % of control, the T/C under setting [10] is 100 % of control and the T/C under setting [11] was 100 % of control.
`O=P(O)(Oc1ccccc1)Oc1ccccc1.[Al]`: the T/C was 104 % of control under setting [6], 95 % of control under setting [1] and 95 % of control under setting [3].
Consider `O=C(CBr)c1ccc(I)cc1`, for which the T/C was 109 % of control (dose: 13.0 mg/kg/injection, schedule: Q01DX010 (ip), vehicle: saline); 109 % of control (dose: 26.0 mg/kg/injection, schedule: Q01DX010 (ip), vehicle: saline); 90 % of control (dose: 43.0 mg/kg/injection, schedule: Q01DX010 (ip), vehicle: saline).
For the molecule `CN(CCO)/N=N/c1nc[nH]c1C(N)=O`, the T/C is, setting by setting: under setting [17], 95 % of control; under setting [18], 100 % of control; under setting [19], 100 % of control; under setting [13], 92 % of control; (dose: 100.0 mg/kg/injection, schedule: Q04DX003 (ip), vehicle: saline) 105 % of control; under setting [16], 110 % of control. Further, the T/C (dose: 200.0 mg/kg/injection, schedule: Q04DX003 (ip), vehicle: saline) was 100 % of control; the T/C (dose: 400.0 mg/kg/injection, schedule: Q01DX009 (ip), vehicle: saline) was 100 % of control; the T/C (dose: 400.0 mg/kg/injection, schedule: Q04DX003 (ip), vehicle: saline) is 105 % of control.
`C=CCNC(=O)NCC=C`: the T/C under setting [20] was 161 % of control.
Regarding `COc1cc(Nc2c3ccccc3nc3ccccc23)cc(OC)c1OC`, the T/C is, setting by setting: (dose: 12.5 mg/kg/injection, schedule: Q01DX009 (ip), vehicle: saline with Tween-80) 97 % of control and 99 % of control; under setting [5], 112 % of control; under setting [6], 109 % of control and 115 % of control.
With `CC(=N/NC(=S)NCCN1CCCCC1)/C(C)=N\NC(=S)NCCN1CCCCC1`, the T/C was 90 % of control (dose: 0.78 mg/kg/injection, schedule: Q01DX009 (ip), vehicle: saline); 98 % of control under setting [17]; 98 % of control and 121 % of control under setting [18]; 105 % of control and 109 % of control under setting [19]; 103 % of control under setting [12].
Turning to `Cn1nnn2c(-c3ccccc3)nnc12`, the T/C by setting is: under setting [5], 115 % of control; under setting [6], 110 % of control; under setting [1], 95 % of control.
In the case of `O=C1CC(c2ccc(O)cc2)C2(O1)C(=O)OC(C(O)CO)C2O` (stereo not given), the T/C runs as follows: (dose: 50.0 mg/kg/injection, schedule: Q01DX010 (ip), vehicle: saline) 100 % of control; under setting [20], 100 % of control; (dose: 200.0 mg/kg/injection, schedule: Q01DX010 (ip), vehicle: saline) 105 % of control; (dose: 400.0 mg/kg/injection, schedule: Q01DX010 (ip), vehicle: saline) 105 % of control.
On to `O=C1CC2OCC=C3CN4CCC56c7ccccc7N1C5C2C3CC46` (stereo not given) (tested in a mixture with another compound), for which the T/C runs as follows: (dose: 0.5 mg/kg/injection, schedule: Q04DX003 (ip), vehicle: saline + alcohol) 95 % of control; (dose: 1.0 mg/kg/injection, schedule: Q04DX003 (ip), vehicle: saline + alcohol) 110 % of control.
Regarding `CS(=O)(=O)N(CC(=O)O)Cc1ccc(Cl)c(Cl)c1`, the T/C by setting is: (dose: 25.0 mg/kg/injection, schedule: Q04DX003 (ip), vehicle: other) 102 % of control; (dose: 50.0 mg/kg/injection, schedule: Q04DX003 (ip), vehicle: other) 102 % of control; (dose: 100.0 mg/kg/injection, schedule: Q04DX003 (ip), vehicle: other) 93 % of control; (dose: 200.0 mg/kg/injection, schedule: Q04DX003 (ip), vehicle: other) 106 % of control and 107 % of control; (dose: 300.0 mg/kg/injection, schedule: Q04DX003 (ip), vehicle: other) 95 % of control.
`O=C(O)C1CCCN1C(=O)CCS` (stereo not given): the T/C under setting [14] is 90 % of control, the T/C under setting [15] was 90 % of control and the T/C under setting [16] was 97 % of control.
For `COc1ccc(Cl)cc1NC1=CC(c2ccc(Cl)cc2)OC1=O` (stereo not given), the T/C is 100 % of control under setting [7]; 100 % of control (dose: 200.0 mg/kg/injection, schedule: Q01DX001 (ip), vehicle: saline with Tween-80); 95 % of control under setting [8].
Take `CCC(CC)OCCN1CCN(CCCN2c3ccccc3Sc3ccc(C(F)(F)F)cc32)CC1`: the T/C by setting is: (dose: 5.0 mg/kg/injection, schedule: Q04DX003 (ip), vehicle: saline with Tween-80) 103 % of control and 104 % of control; (dose: 10.0 mg/kg/injection, schedule: Q04DX003 (ip), vehicle: saline with Tween-80) 108 % of control and 116 % of control; (dose: 20.0 mg/kg/injection, schedule: Q04DX003 (ip), vehicle: saline with Tween-80) 122 % of control.
